Laboratory results: US20180221457A1 (VAL-CHUM, LIMITED PARTNERSHIP, priority 2015, published 2018)
Each block holds one molecule with its values, some of them ahead of it.

What was measured:
human G3PP (hG3PP) = biological target: T1, human G3PP (hG3PP) (Homo sapiens, UniProt A6NDG6); experiment: Effect of organic acids on G3PP activity in hG3PP-overexpressing 293T cell extracts; assay type: biochemical; details: 10 mM Gro3P substrate, 2 or 10 mM test organic acid, 30 min at 30° C.
T1 construct: expressed in transfected cells; host or cells: 293T cells (whole cell extract)
T1 sequence (A6NDG6 1-321): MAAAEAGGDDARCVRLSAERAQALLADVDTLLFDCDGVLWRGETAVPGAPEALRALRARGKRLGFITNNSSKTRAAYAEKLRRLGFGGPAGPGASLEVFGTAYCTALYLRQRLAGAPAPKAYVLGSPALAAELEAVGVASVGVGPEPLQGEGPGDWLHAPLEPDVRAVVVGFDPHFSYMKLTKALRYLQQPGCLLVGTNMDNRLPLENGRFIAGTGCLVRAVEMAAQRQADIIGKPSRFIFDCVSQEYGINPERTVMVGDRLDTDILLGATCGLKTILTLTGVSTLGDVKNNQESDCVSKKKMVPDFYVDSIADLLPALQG
Description: In order to examine the effect of various compounds on G3PP activity, human G3PP (hG3PP) was overexpressed in 293T cells, using a plasmid vector. Simultaneously control cells received GFP (Green Fluorescent Protein) expression plasmid. After 72 h following transfection, cells were harvested and whole cell extracts were prepared in Krebs Ringer Buffer (KRBH). G3PP was assayed using […] G3PP cell extract protein (or GFP control extract) with 10 mM Gro3P substrate and 2 or 10 mM test organic acid (R-hydroxy butyric acid, glycolate, succinate, citrate, malate, fumarate, lactate and malonate). Incubations were for 30 min at 30° C. Then the reactions were stopped by adding perchloric acid and glycerol released was measured using Γ-^32P-labeled ATP plus glycerokinase. The amount of glycerol release is proportional to the activity of hG3PP in the cell extracts.

INS832/13 β-cells = experiment: Free fatty acids and glycerol release from INS832/13 cells; assay type: cell-based, rat; details: 50 μM orlistat, 2 h
Description: (§1) Free fatty acids and glycerol release. For FFA determinations, isolated rat islets were pre-incubated for 1 h in KRBH containing 2 mM glutamine and at 4 mM glucose, 50 μM carnitine and then incubated for 2 h at 4, 10, 16 and 25 mM glucose. The low and high glucose concentrations were 2 and 10 mM, respectively, when INS832/13 cells were used. Incubations were done without and with the panlipase inhibitor, orlistat. Cells and islets were harvested after incubations for protein extraction. FFA released into the medium were extracted by a modified Dole-Meinertz extraction procedure (Puttmann et al., 1993). Briefly, the media (0.5 ml), in Pyrex glass tubes, were mixed with the internal standard [^2H31]-palmitic acid and extracted with 2.5 ml of a solvent mixture containing isopropanol-n-heptane-2M phosphoric acid (40:10:1, v/v). […] The dried fatty acids were derivatized with phenacylbromide and quantified by reverse phase HPLC (Mehta et al., 1998) using a Zorbax Eclipse plus XDB analytical C18 column (4.6×250 mm; 5 μm; Agilent Technology). FFA were eluted using methanol/water (92.5:7.5, v/v) at a flow rate of 1.5 ml/min and absorbance of eluting FFA-phenacyl derivatives was measured at 242 and 254 nm. […] Glycerol release was determined by a radiometric glycerol assay (Bradley and Kaslow, 1989) using [Γ-^32P]ATP and glycerokinase.

rat islets = experiment: Free fatty acids and glycerol release from isolated rat islets; assay type: cell-based; details: 50 μM orlistat, 2 h
Description: Islet and hepatocyte isolation. Pancreatic islets were isolated from rats and mice (Peyot et al., 2009). Isolated islets were cultured overnight at 37° C. in complete RPMI 1640 medium. Hepatocytes were isolated from rats by in situ collagenase perfusion and were seeded in DMEM complete medium (Merlen et al., 2014).
as §1, with “v/v). After thorough mixing by vortex, the tubes were kept in a bath sonicator (Branson Ultrasonic) and sonicated for 2 min with 30 s intervals, avoiding sample heating. After rigorous mixing by vortex, the tubes were let stand at room temperature for 10 min, and then heptane (1 ml) and water (1.5 ml) were added and the tubes were thoroughly mixed by vortex followed by sonication for 1 min. Then the tubes were centrifuged at 1000×g for 10 min at 4° C.” for “v/v).”, “glycerokinase. […]” for “glycerokinase.”

[1] = substrate: O=P(O)(O)OCC(O)CO; experiment: purified protein, by the assay type; details: other: substrate glycerol-3-phosphate; pH 7.5

Molecule: CC(O)CC(=O)O (stereo not drawn) [beta-hydroxybutyrate]
G3PP activity (glycerol released) (human G3PP (hG3PP)): stimulated

Molecule: CCCCCCCCCCC[C@@H](C[C@@H]1OC(=O)[C@H]1CCCCCC)OC(=O)[C@H](CC(C)C)NC=O [orlistat]
glycerol release (INS832/13 β-cells; elevated glucose concentration): not inhibited
FFA release (lipolysis) (INS832/13 β-cells; high glucose concentrations): reduction
glycerol release (rat islets; elevated glucose concentration): not inhibited
FFA release (lipolysis) (rat islets; high glucose concentrations): reduction
glycerol release (rat islets; medium concentration of glucose (10 mM)): moderate inhibition

B1: Recombinant human PGP (Homo sapiens) (protein)
chain: MAAAEAGGDDARCVRLSAERAQALLADVDTLLFDCDGVLWRGETAVPGAPEALRALRARGKRLGFITNNSSKTRAAYAEKLRRLGFGGPAGPGASLEVFGTAYCTALYLRQRLAGAPAPKAYVLGSPALAAELEAVGVASVGVGPEPLQGEGPGDWLHAPLEPDVRAVVVGFDPHFSYMKLTKALRYLQQPGCLLVGTNMDNRLPLENGRFIAGTGCLVRAVEMAAQRQADIIGKPSRFIFDCVSQEYGINPERTVMVGDRLDTDILLGATCGLKTILTLTGVSTLGDVKNNQESDCVSKKKMVPDFYVDSIADLLPALQG
Km [1]: 1500 µM
kcat [1]: 0.1 s⁻¹

More lines, now with the values ahead:

G3PP activity (glycerol released) (human G3PP (hG3PP)): do not activate similarly
Molecule: O=C(O)/C=C/C(=O)O [fumarate]

G3PP activity (glycerol released) (human G3PP (hG3PP)): do not activate similarly
Molecule: O=C(O)CC(O)C(=O)O (stereo not drawn) [malate]

G3PP activity (glycerol released) (human G3PP (hG3PP)): do not activate similarly
Molecule: O=C(O)CC(=O)O [malonate]

G3PP activity (glycerol released) (human G3PP (hG3PP)): marked stimulation
Molecule: O=C(O)CCC(=O)O [succinate]
